Data reported in US9856234B2, “Heterocyclic compounds and their use as glycogen synthase kinase 3 inhibitors” (ABBVIE INC., priority 2006, dated 2018).

Biological target: T1, human Glycogen Synthase Kinase-3 beta (hGSK-3β) (Homo sapiens, UniProt P49841)
T1 construct: purchased Upstate cell signaling solutions
Experiment: Biochemical hGSK-3Beta assay (33P-ATP phosphorylation of biotinylated peptide substrate)
Conditions: 10 μM ATP, 30 minutes at room temperature; read-out: GSK-3β IC50
Method: Methods—Biochemical hGSK-3Beta Assay
Compounds were tested for their ability to inhibit human Glycogen Synthase Kinase-3 beta (hGSK-3β) to phosphorylate biotin-[…](pS)EDEEE. Compounds were incubated with 0.5 μCi 33P-ATP, 10 μM ATP, 0.0125 U hGSK-3β (Upstate cell signaling solutions) and 1 μM substrate (biotin-[…](pS)EDEEE) in 50 mM HEPES, 10 mM MgCl2, […], 1 mM DTT, 0.0075% Triton, 2% DMSO (total volume 50 μL) for 30 minutes at room temperature. The incubation was stopped by addition of an equal volume of 100 mM EDTA, 4M NaCl. 80 μL of this mixture was added to streptavidin-coated Flashplates (PerkinElmer). Following a wash step, 33P incorporation was quantified on a MicroBeta microplate liquid scintillation counter (Perkin Elmer). IC50's were determined by fitting a sigmoidal dose-response curve to the counts obtained at the different concentrations in Graph Pad Prism.

T1 sequence (P49841 whole entry): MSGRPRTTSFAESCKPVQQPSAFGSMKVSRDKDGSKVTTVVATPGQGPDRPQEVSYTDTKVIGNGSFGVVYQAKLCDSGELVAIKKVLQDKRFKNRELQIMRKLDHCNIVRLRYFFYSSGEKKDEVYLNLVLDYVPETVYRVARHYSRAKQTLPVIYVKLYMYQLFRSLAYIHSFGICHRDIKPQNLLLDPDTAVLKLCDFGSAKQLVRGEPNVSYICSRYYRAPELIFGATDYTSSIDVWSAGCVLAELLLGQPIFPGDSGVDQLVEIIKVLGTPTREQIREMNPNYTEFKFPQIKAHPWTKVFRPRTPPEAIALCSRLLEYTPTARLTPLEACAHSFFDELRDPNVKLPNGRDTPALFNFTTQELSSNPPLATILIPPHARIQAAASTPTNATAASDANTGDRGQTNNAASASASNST

Compound	IC50
1-(8-Bromoquinolin-4-yl)-3-(pyrazin-2-yl)urea [Example 37]	< 100 nM
1-Methyl-1-pyrazin-2-yl-3-(6-trifluoromethyl-quinolin-4-yl)-urea [Example 22]	> 10000 nM
O=C(Nc1cnccn1)Nc1cc(C(F)(F)F)nc2ccccc12 [Example 1, 1-Pyrazin-2-yl-3-(2-trifluoromethyl-quinolin-4-yl)-urea]	100 to 10000 nM
O=C(Nc1cnccn1)Nc1ccnc2ccc(Br)cc12 [Example 2, 1-(6-Bromo-quinolin-4-yl)-3-pyrazin-2-yl-urea]	< 100 nM
O=C(Nc1cnccn1)Nc1c2c(nc3ccccc13)CCCC2 [Example 5, 1-Pyrazin-2-yl-3-(1,2,3,4-tetrahydro-acridin-9-yl)-urea]	100 to 10000 nM
O=C(Nc1cnccn1)Nc1cncc2ccccc12 [Example 6, 1-Isoquinolin-4-yl-3-pyrazin-2-yl-urea]	100 to 10000 nM
O=C(Nc1cnccn1)Nc1cccc2ccccc12 [Example 7, 1-Naphthalen-1-yl-3-pyrazin-2-yl-urea]	> 10000 nM
Cc1cc(NC(=O)Nc2cnccn2)c2ccccc2n1 [Example 12, 1-(2-Methyl-quinolin-4-yl)-3-pyrazin-2-yl-urea]	100 to 10000 nM
O=C(Nc1cnccn1)Nc1cccc2ccncc12 [Example 19, 1-Isoquinolin-8-yl-3-pyrazin-2-yl-urea]	100 to 10000 nM
O=C(Nc1cnccn1)Nc1cccc2cnccc12 [Example 20, 1-Isoquinolin-5-yl-3-pyrazin-2-yl-urea]	100 to 10000 nM
O=C(Nc1cnccn1)Nc1cccc2ncccc12 [Example 21, 1-Pyrazin-2-yl-3-quinolin-5-yl-urea]	100 to 10000 nM

Continued, values first:

IC50	Compound
< 100 nM	1-(7-Bromoquinolin-4-yl)-3-(pyrazin-2-yl)urea [Example 28]
100 to 10000 nM	1-(Pyrazin-2-yl)-3-(pyridin-4-yl)urea [Example 24]
< 100 nM	O=C(Nc1cnccn1)Nc1ccnc2cc(I)ccc12 [Example 27, 1-(7-Iodoquinolin-4-yl)-3-(pyrazin-2-yl)urea]
100 to 10000 nM	O=C(Nc1ccccn1)Nc1ccnc2cc(C(F)(F)F)ccc12 [Example 29, 1-(Pyridin-2-yl)-3-(7-(trifluoromethyl)quinolin-4-yl)urea]
> 10000 nM	O=C(Nc1ccccc1)Nc1ccnc2ccccc12 [Example 30, 1-Phenyl-3-(quinolin-4-yl)urea, reference compound]
< 100 nM	Cc1cccc2c(NC(=O)Nc3cnccn3)ccnc12 [Example 31, 1-(8-Methylquinolin-4-yl)-3-(Pyrazin-2-yl)urea]
< 100 nM	O=C(Nc1cnccn1)Nc1ccnc2c(Cl)cccc12 [Example 32, 1-(8-Chloroquinolin-4-yl)-3-(pyrazin-2-yl)urea]
< 100 nM	O=C(Nc1cnccn1)Nc1ccnc2c(I)cccc12 [Example 34, 1-(8-Iodoquinolin-4-yl)-3-(pyrazin-2-yl)urea]
100 to 10000 nM	O=C(Nc1cnccn1)Nc1c(Br)cnc2ccccc12 [Example 35, 1-(3-Bromoquinolin-4-yl)-3-(pyrazin-2-yl)urea]
> 10000 nM	O=C(Nc1cnc2ccccc2c1)Nc1cnccn1 [Example 40, 1-(Pyrazin-2-yl)-3-(quinolin-3-yl)urea, reference compound]
